# Several values for one entry are separate records, joined by “and”; a condition that tells them apart may be missing. Equal values may be shown once. Ends that are not written are not given here. * marks the point of attachment. Myristoyl = CCCCCCCCCCCCCC(=O)*
# Key:
# [1] = Solubility in water on reconstitution; format: physicochemical; conditions: compared with unconjugated peptide; reconstituted in DMSO first
# Method: Synthetic peptides. The peptides were synthesized at Lifetein Inc. (Hillborough, NJ). The lyophilized peptides were aliquoted and stored (in the presence of desiccant) at −40° C. prior to use. On the day of intraperitoneal (IP) administration, an aliquot of lyophilized unconjugated peptide was reconstituted in sterile saline at the appropriate concentration of 2 mg/kg. Reconstituted peptide was prepared fresh before each injection. […] The final concentration of DMSO in sterile saline was 10%. The vehicle, DMSO in sterile saline, was tested independently and had no effect on blood pressure when administered as an IP injection.
# [2] = system: Zucker diabetic fatty rats; test: Observation of side effects / tolerability in ZDF rats
# [3] = system: male Zucker diabetic fatty rats; test: Tail cuff blood pressure in male ZDF rats after IP peptide; format: in vivo, rat; conditions: for systolic blood pressure-lowering at 4 hours post-administration vs baseline: Experiment 2: two male ZDF rats; for Acute Peak diastolic blood pressure-lowering / Acute Peak mean arterial blood pressure-lowering / Acute Peak systolic blood pressure-lowering / Duration of Action, diastolic BP / Duration of Action, mean arterial BP / Duration of Action, systolic BP: two male ZDF rats
# Method: Animals. Male ZDF and lean (+/?) Zucker rats were obtained from Charles River Laboratories (Kingston, NY) at approximately 6-7 weeks of age. The rats were single housed upon arrival, without enrichment. Rats were acclimatized for two weeks prior to experimental procedures. Rats were provided ad libitum access to food and water and maintained in a 12 h light/dark cycle with lights on at 0630. The procedures occurred during the light phase of the cycle. Blood pressure testing (following acute or chronic administration of the decoy peptides) was conducted in three separate cohorts of animals.
# Cohort 1: Three 25-week-old male ZDF and three, age-matched, male Zucker lean rats (ZLR) treated with IP decoy peptide 2 (ZDF) vs saline (vehicle) (ZLR).
# Cohort 2: Eleven-week old male ZDF (n=5) and Zucker lean rats (n=4) treated with IP decoy peptide 2.
# Cohort 3: Twelve 8.5-week old male Zucker diabetic fatty rats were randomly assigned to one of three treatment groups (n=4/group). The rats underwent baseline blood pressure determinations using tail-cuff plethysmography technique. Next, the animals who expressed baseline hypertension, i.e., blood pressure >135/85, received either a 1 mg/kg intraperitoneal injection of pegylated decoy peptide 2 (n=3); a 2 mg/kg intraperitoneal dose of a scrambled decoy peptide 2 (n=4); or vehicle (i.e., sterile saline) (N=4). Blood pressure was determined at 15 minutes, 45 minutes, 4 hours, 8 hours, 24 hours, 30 and 48 hours following single IP injection. One week later, the same two groups of ZDF rats received either 0.75 mg/kg IP pegylated decoy peptide 2, 2 mg/kg scrambled decoy peptide 2, or sterile saline; and blood pressure was determined at similar timepoints. Two weeks later, two groups of 12-week-old ZDF rats (n=6/group) including those that had previously received acute peglyated decoy peptide 2 or scrambled decoy peptide 2 were treated on an alternative daily schedule with IP, free decoy peptide 2 (2 mg/kg) vs IP scrambled decoy peptide 2 (2 mg/kg) continuously for 13 weeks until sacrifice at 25 weeks of age. Body weight was determined immediately before sacrifice and after perfusion; and hearts were excised and weighed for determination of the heart-to-(perfused) body weight ratio.
# (§1) Blood pressure monitoring. Tail cuff blood pressure measurement was performed using an automated CODA noninvasive blood pressure system (Kent Scientific, Torrington, CT). Rats were placed on an insulated warming platform in a well-heated room to ensure proper body temperature. Cuff monitors were provided in different sizes to accommodate rats of different ages and having different body weights. After the animal was positioned in the clear plastic restraint holder, the appropriate-sized cuff was slid over the rat's tail.
# Statistical Analysis. Comparisons were made using Student's unpaired t-test (Tables 3-6, 9 and FIG. 18) or time series analysis (Tables 7, 8, FIG. 16).
# as §1, with “CT.).” for “CT).”
# Experiment 1: Four 12-week-old male ZDF rats were randomly assigned to receive either a single IP injection of a scrambled sequence (SEQ ID NO: 7) of Peptide ID #2 (SEQ ID NO: 2) at 1 mg/kg concentration or a 1 mg/kg concentration of myristolated Peptide ID #2 (SEQ ID NO: 9). Blood pressure was determined using tail cuff plethysmography (Kent Scientific) at 1, 4, 6, 48 and 72 hours post-injection.
# Experiment 2: Six 12-week-old male ZDF rats were assigned to each of three treatment groups (N=2/group). […]
# [4] = system: male Zucker diabetic fatty rats; test: as above; format: in vivo, rat; conditions: two 13-week-old male ZDF rats, myristolated 2.5 mg/kg single IP
# [5] = 11-week-old male ZDF rats (N=4/group), single IP Myr-peptide 2 2 mg/kg vs scrambled 1 mg/kg (reference = 0), over 6 days
# [6] = Experiment 1: myristolated 1 mg/kg single IP
# [7] = four 11-12-week-old male ZDF rats, single 2 mg/kg IP
# [8] = male ZDF rats before single 2 mg/kg IP, unconjugated: two 25-week-old, myristolated: four 11-12-week-old
# [9] = male ZDF rats, single 2 mg/kg IP, unconjugated: two 25-week-old, myristolated: four 11-12-week-old
# [10] = single 2 mg/kg IP vs 1 mg/kg scrambled
# [11] = myristolated 1 mg/kg single IP, listed as Myristolated Peptide 2
# [12] = myristolated 1.5 mg/kg single IP
# [13] = myristolated 1.5 mg/kg single IP, listed as Myristolated Peptide 2
# [14] = myristolated 2.0 mg/kg single IP
# [15] = myristolated 2.0 mg/kg single IP, listed as Myristolated Peptide 2
# [16] = myristolated 2.5 mg/kg single IP
# [17] = myristolated 2.5 mg/kg single IP, listed as Myr Peptide 2
# [18] = myristolated 2.5 mg/kg single IP, listed as Myristolated Peptide 2
substance,measurement,setting,value
Myr-SCLLADDN (Myristoyl-SCLLADDN) [myristolated Peptide ID 2],"solubility in water, in words",[1],lower solubility in water
same,adverse physical or behavioral effects,"[2]; Experiment 1: male ZDF rats, myristolated 1 mg/kg IP",No discernable adverse physical or behavioral effects
same,untoward physical or behavioral effect,"[2]; ten ZDF rats (Expt 1 and 2), up to 14-21 days after single IP",None of the ten rats tested (N=4 in Expt 1; N=6 in Expt 2) experienced any untoward physical or behavioral effect
same,Estimate: diastolic blood pressure lowering effect vs scrambled peptide (time series),[3]; [5],−12.0471
same,Estimate: systolic blood pressure lowering effect vs scrambled peptide (time series),[3]; [5],−17.4393
same,"effect on diastolic blood pressure, in words","[3]; Experiment 1: male ZDF rats (N=2/group), 1 mg/kg single IP",rapid-onset diastolic blood pressure lowering
same,"effect on systolic blood pressure, in words",[3]; [6],"significantly lower at 1, 4, 6 hours and 48 hours post-baseline, but not at 72 hours"
same,time span of significantly reduced mean arterial blood pressure,[3]; [6],1 to 72 h
same,persistence of systolic blood pressure-lowering,"[3]; Experiment 2: myristolated 1 mg/kg IP, one value per rat",48 to 72 h and 96 to 168 h
same,persistence of declines in diastolic and mean arterial blood pressure,"[3]; Experiment 2: myristolated 1 mg/kg IP, rat 1 / rat 2",2 to 3 days and 4 to 7 days
same,persistence of systolic blood pressure-lowering,[3]; Experiment 2: myristolated 1.5 mg/kg IP,up to 168 hours
same,persistence of blood pressure-lowering,"[3]; Experiment 2: myristolated 1.5 mg/kg IP, both rats",up to 7 days
same,systolic blood pressure-lowering at 4 hours post-administration vs baseline,[3]; myristolated 1 mg/kg IP,8-11%
same,systolic blood pressure-lowering at 4 hours post-administration vs baseline,[3]; myristolated 1.5 mg/kg IP,13%
same,"mean diastolic BP, 72 hours",[3]; [7],80
same,"mean diastolic BP, 6 days",[3]; [7],85
same,"mean diastolic BP, 7 days",[3]; [7],94
same,"mean systolic BP, 72 hours",[3]; [7],126
same,"mean systolic BP, 6 days",[3]; [7],127
same,"mean systolic BP, 7 days",[3]; [7],142
same,"mean diastolic BP, Baseline",[3]; [8],97
same,"mean systolic BP, Baseline",[3]; [8],146
same,"mean diastolic BP, 24 hours",[3]; [9],76
same,"mean diastolic BP, 48 hours",[3]; [9],82
same,"mean systolic BP, 24 hours",[3]; [9],117
same,"mean systolic BP, 48 hours",[3]; [9],123
same,duration of blood pressure lowering,"[3]; male ZDF rats, single IP 2 mg/kg, myristic acid conjugated",≥ 6 days
same,mean lowering in diastolic blood pressure compared to scrambled Peptide 2,[3]; [10],12 mm Hg
same,mean lowering in systolic blood pressure compared to scrambled Peptide 2,[3]; [10],17.4 mm Hg
same,"blood pressure-lowering effects, in words",[3]; single IP doses ranging from 1.0-2.5 mg/kg,"potent, dose-dependent, and in many cases unexpectedly quite long-lasting"
same,time until systolic and diastolic blood pressure returned to baseline,"[3]; two 13-week-old male ZDF rats, myristolated 2.5 mg/kg single IP",9 days
same,Acute Peak diastolic blood pressure-lowering,[3]; myristolated 1 mg/kg single IP,10-12%
same,Acute Peak mean arterial blood pressure-lowering,[3]; myristolated 1 mg/kg single IP,6-8%
same,Acute Peak systolic blood pressure-lowering,[3]; myristolated 1 mg/kg single IP,4-10%^
same,"Duration of Action, diastolic BP",[3]; myristolated 1 mg/kg single IP,4 to 6 days
same,"Duration of Action, mean arterial BP",[3]; myristolated 1 mg/kg single IP,4 to 6 days
same,Acute Peak diastolic blood pressure-lowering,[3]; [11],10-12%
same,Acute Peak mean arterial blood pressure-lowering,[3]; [11],6-8%
same,"Duration of Action, systolic BP",[3]; [11],4 to 7 days and 7 days
same,Acute Peak diastolic blood pressure-lowering,[3]; [12],11-19%
same,Acute Peak mean arterial blood pressure-lowering,[3]; [12],14%
same,Acute Peak systolic blood pressure-lowering,[3]; [12],10%
same,"Duration of Action, diastolic BP",[3]; [12],7 days
same,"Duration of Action, mean arterial BP",[3]; [12],7 days
same,"Duration of Action, systolic BP",[3]; [12],7 days
same,Acute Peak diastolic blood pressure-lowering,[3]; [13],19%
same,Acute Peak mean arterial blood pressure-lowering,[3]; [13],14%
same,Acute Peak diastolic blood pressure-lowering,[3]; [14],22-25%
same,Acute Peak systolic blood pressure-lowering,[3]; [14],7-15%
same,Acute Peak mean arterial blood pressure-lowering,"[3]; myristolated 2.0 mg/kg single IP, listed as Myr Peptide 2",14-22%
same,Acute Peak diastolic blood pressure-lowering,[3]; [15],20-25%.
same,Acute Peak mean arterial blood pressure-lowering,[3]; [15],14-22%
same,Acute Peak systolic blood pressure-lowering,[3]; [15],15%
same,Acute Peak systolic blood pressure-lowering,[3]; [16],20-23%
same,"Duration of Action, diastolic BP",[3]; [16],9 days
same,"Duration of Action, mean arterial BP",[3]; [16],9 days
same,"Duration of Action, systolic BP",[3]; [16],9 days
same,Acute Peak diastolic blood pressure-lowering,[3]; [17],18-35%
same,Acute Peak mean arterial blood pressure-lowering,[3]; [17],28-30%
same,Acute Peak diastolic blood pressure-lowering,[3]; [18],18-36%
same,Acute Peak mean arterial blood pressure-lowering,[3]; [18],19-30%
same,Acute Peak systolic blood pressure-lowering,[3]; [18],23%
same,duration of persistent blood pressure lowering,[4]; listed as myristolated decoy Peptide 2,9 days
same,duration of persistent blood pressure lowering,[4]; listed as myristolated decoy peptide 2,8 days
